# Measurements as given in ChEMBL document CHEMBL3885881, “DrugMatrix”.
# Experiments:
# [1] = species on record: Rattus norvegicus; assay type: toxicity, organism-based, Sprague-Dawley; conditions: in vivo, po, 200 mg/kg, 24 h, route oral GAVAGE, dose level High, time 1 day, vehicle .5 % CMC
# Description: DrugMatrix - Regimen: Single
# [2] = species on record: Rattus norvegicus; experiment: DrugMatrix - Regimen: Daily Repeat; assay type: toxicity, organism-based, Sprague-Dawley; parameters: regimen Daily Repeat, gender Male, age 6-8 weeks; conditions: in vivo, po, 200 mg/kg, […], route oral GAVAGE, dose level High, time 14 day, vehicle .5 % CMC
smiles,measurement,setting,value
CC(C)=C1CC[C@@H](C)CC1=O [PULEGONE],ABSOLUTE EOSINOPHIL,[1]; tissue Blood,46 CELLS/uL
same,ABSOLUTE LYMPHOCYTE,[1]; tissue Blood,13023.67 CELLS/uL
same,ABSOLUTE MONOCYTE,[1]; tissue Blood,245.33 CELLS/uL
same,ABSOLUTE SEGMENTED NEUTROPHIL,[1]; tissue Blood,1251.67 CELLS/uL
same,BASOPHIL,[1]; tissue Blood,0%
same,EOSINOPHIL,[1]; tissue Blood,0.33%
same,ERYTHROCYTE COUNT,[1]; tissue Blood,5.98 x10E6/uL
same,HEMATOCRIT,[1]; tissue Blood,37.73%
same,HEMOGLOBIN,[1]; tissue Blood,13.9 G/DL
same,LEUKOCYTE COUNT,[1]; tissue Blood,14.57 x10E3/uL
same,LYMPHOCYTE,[1]; tissue Blood,90%
same,MEAN CORPUSCULAR HEMOGLOBIN,[1]; tissue Blood,23.43 pg
same,MEAN CORPUSCULAR HEMOGLOBIN CONCENTRATION,[1]; tissue Blood,37 G/DL
same,MEAN CORPUSCULAR VOLUME,[1]; tissue Blood,63.4 fL
same,MONOCYTE,[1]; tissue Blood,1.67%
same,NEUTROPHIL,[1]; tissue Blood,8%
same,NUCLEATED RED BLOOD CELLS,[1]; tissue Blood,0 /100WBC
same,PLATELET COUNT,[1]; tissue Blood,961.67 x10E3/uL
same,ALANINE AMINOTRANSFERASE,[1]; tissue Plasma,52.67 u/L
same,ALBUMIN,[1]; tissue Plasma,4.3 G/DL
same,ALKALINE PHOSPHATASE,[1]; tissue Plasma,476.33 u/L
same,ASPARTATE AMINOTRANSFERASE,[1]; tissue Plasma,110 u/L
same,BLOOD UREA NITROGEN,[1]; tissue Plasma,12.33 mg/dL
same,CARBON DIOXIDE,[1]; tissue Plasma,23.67 mmol/L
same,CHLORIDE,[1]; tissue Plasma,103.5 MEQ/L
same,CHOLESTEROL,[1]; tissue Plasma,77.67 mg/dL
same,CREATININE,[1]; tissue Plasma,0.14 mg/dL
same,GLUCOSE,[1]; tissue Plasma,133.33 mg/dL
same,LACTATE DEHYDROGENASE,[1]; tissue Plasma,244 u/L
same,LIPASE,[1]; tissue Plasma,10 u/L
same,PHOSPHORUS,[1]; tissue Plasma,12.8 mg/dL
same,POTASSIUM,[1]; tissue Plasma,6.49 MEQ/L
same,SODIUM,[1]; tissue Plasma,142.65 MEQ/L
same,TOTAL BILIRUBIN,[1]; tissue Plasma,0.23 mg/dL
same,TOTAL PROTEIN,[1]; tissue Plasma,6 G/DL
same,URIC ACID,[1]; tissue Plasma,1.8 mg/dL
same,ABSOLUTE BASOPHIL,[2]; tissue Blood,0 CELLS/uL
same,ABSOLUTE EOSINOPHIL,[2]; tissue Blood,211.4 CELLS/uL
same,ABSOLUTE LYMPHOCYTE,[2]; tissue Blood,21257.2 CELLS/uL
same,ABSOLUTE MONOCYTE,[2]; tissue Blood,665.8 CELLS/uL
same,ABSOLUTE SEGMENTED NEUTROPHIL,[2]; tissue Blood,3705.6 CELLS/uL
same,BASOPHIL,[2]; tissue Blood,0%
same,EOSINOPHIL,[2]; tissue Blood,0.8%
same,ERYTHROCYTE COUNT,[2]; tissue Blood,6.34 x10E6/uL
same,HEMATOCRIT,[2]; tissue Blood,37.3%
same,HEMOGLOBIN,[2]; tissue Blood,13.88 G/DL
same,LEUKOCYTE COUNT,[2]; tissue Blood,25.84 x10E3/uL
same,LYMPHOCYTE,[2]; tissue Blood,82.2%
same,MEAN CORPUSCULAR HEMOGLOBIN,[2]; tissue Blood,21.94 pg
same,MEAN CORPUSCULAR HEMOGLOBIN CONCENTRATION,[2]; tissue Blood,37.2 G/DL
same,MEAN CORPUSCULAR VOLUME,[2]; tissue Blood,58.94 fL
same,MONOCYTE,[2]; tissue Blood,2.6%
same,NEUTROPHIL,[2]; tissue Blood,14.4%
same,NUCLEATED RED BLOOD CELLS,[2]; tissue Blood,0 /100WBC
same,PLATELET COUNT,[2]; tissue Blood,1150.2 x10E3/uL
same,ALANINE AMINOTRANSFERASE,[2]; tissue Plasma,78.8 u/L
same,ALBUMIN,[2]; tissue Plasma,4.54 G/DL
same,ALKALINE PHOSPHATASE,[2]; tissue Plasma,518 u/L
same,ASPARTATE AMINOTRANSFERASE,[2]; tissue Plasma,93.8 u/L
same,BLOOD UREA NITROGEN,[2]; tissue Plasma,14.2 mg/dL
same,CARBON DIOXIDE,[2]; tissue Plasma,27.4 mmol/L
same,CHLORIDE,[2]; tissue Plasma,102.2 MEQ/L
same,CHOLESTEROL,[2]; tissue Plasma,65 mg/dL
same,CREATININE,[2]; tissue Plasma,0.18 mg/dL
same,GLUCOSE,[2]; tissue Plasma,128.2 mg/dL
same,LACTATE DEHYDROGENASE,[2]; tissue Plasma,147 u/L
same,LIPASE,[2]; tissue Plasma,11 u/L
same,PHOSPHORUS,[2]; tissue Plasma,12.52 mg/dL
same,POTASSIUM,[2]; tissue Plasma,7 MEQ/L
same,SODIUM,[2]; tissue Plasma,148.6 MEQ/L
same,TOTAL BILIRUBIN,[2]; tissue Plasma,0.32 mg/dL
same,TOTAL PROTEIN,[2]; tissue Plasma,6.52 G/DL
same,URIC ACID,[2]; tissue Plasma,2.08 mg/dL
